One block for each compound: values may come before it.
How the values were obtained:
Format in all cases: physicochemical
[1] = Weight loss and dye release of glucose pentaacetate glass discs in water
Method: Another glass disc of similar dimensions was prepared from α-D-glucose pentaacetate and placed in 1 l of water, which was replaced daily. After 7 days, the glass had lost 20% of its original weight. The release rate of the dye was higher in the first day as the release happened mainly from the surface of the glass disc.

[2] = Glass transition temperature (Tg) by thermal analysis (DSC)
Description: In general, the tendency to crystallize, from a cooling melt or with reducing solvent, is low. Both devitrification and the fluidity of the melt at temperatures close to Tg, can be controlled by modifiers such as other derivative sugars and certain organic actives. The following two tables, generated as described in the Examples presented below, provide Tg and melting temperature data for a variety of HDCs suitable for use, either alone, or in a composite glass, herein.
Dissolution of synthetic corticosteroid XPDO (described below) into a TOAC melt and quenching to form the vitreous solid dose delivery system was achieved. By looking at the release of MB9 into aqueous solution, these experiments tested the compatibility of the steroid within the glass, subsequent recovery of the steroid and studied the effect that XPDO has on the properties of the delivery system formed looking at the release of MB9 into aqueous solution. TOAC (3.21 g) was pre-melted at 150° C., before being quenched to glass. The glass was finely ground with XPDO (0.15 g) before being remelted. The clear melt was again quenched to yield the composite HDC/active glass. Thermal analysis was carried out on a Rheometric Scientific Differential Scanning Calorimeter (DSC) at a heating rate of 10°/min under a nitrogen atmosphere. The following samples were prepared:
Studies were performed using the synthetic corticosteroid XPDO dissolved in DCM. The solution was spray dried in a Buchi B-191 spray drier, using an inlet temperature of 40° C. […] XPDO was incorporated at 20 wt %. The powder was completely amorphous as confirmed by thermal analysis (Tg=46° C.).

[3] = Water resistance and dye release of carboxylate, HDC or plastic coated/coformulated systems
Method: These particles were coated by adding them to a saturated solution of zinc palmitate (ZnC16) in toluene and cooling from 60° C. to 30° C. This deposited a layer of ZnC16 on the particles which were then filtered under vacuum to remove the excess ZnC16, washed with acetone and air-dried.
A fine amorphous film (100-200 μm thickness) was formed by casting on silicate glass slides and evaporating off the solvent in a warm air-stream.
Amorphous films were also formed from calcium neodecanoate dissolved in chloroform (0.5 g/10 ml) as described above.
Films of glucose glass incorporating 1 wt % MB9 were formulated by quenching from the melt. These films were coated with thin (100 μm thickness) amorphous metal carboxylate films by evaporation of solution of the carboxylate in chloroform (0.5 g/10 ml). The metal carboxylates used were aluminum hexanoate and octanoate, calcium neodecanoate and magnesium isostearate and neodecanoate. Dissolution of the films was monitored by release of dye into distilled water.

[4] = Enzyme activity after exposure to acetone, dried with or without trehalose; settings: dried with 50% trehalose versus without, FIGS. 5A and 5B
Method: A 0.1 mg/ml horseradish peroxidase solution or a 1 mg/ml alkaline phosphatase/4 mg/ml bovine serum albumin solution was dried in an FTS Systems freeze drier with or without 50% trehalose. The drier was used as a vacuum drier and the mixtures dried without freezing. Four times the volume of solvent was added and the solution was allowed to evaporate to dryness. The contents were redissolved in 5 milliliters of water, and enzyme activity was assessed, in serial dilution, by commercial ‘kit’ reagents.

[5] = Controlled release of encapsulated MB9 dye from HDC glass beads/discs; settings: FIG. 11
Method: In the following experiments, the delivery system was preformulated, whether as a single material, or as a mixed composition. This was carried out by intimately grinding the component HDCs together, followed by careful, controlled melting in a furnace, between 120-140° C. and with normal atmosphere to form melts. The melts were quenched to glass by pouring over a brass block. This glass was then finely ground.
MB9 dye (1 or 5 wt %) was mixed with the ground glass prior to re-melting at 140° C. The melt was quenched to form small glass beads (2.5 mm diameter) which were used in controlled release experiments.
Controlled release of encapsulated dye was monitored by suspending three such beads in 25 or 50 ml of deionized water or PBS solution at ambient temperatures (27-30° C.) or at 37° C., as indicated. The media were undisturbed, except for periodic stirring and were replaced at set intervals with fresh media (generally at 72 hr intervals). Both single HDC glasses and composite HDC glasses were formed. […] The use of other HDCs as glass modifiers in the composite HDC formulations enable the tailoring of the glasses formed to yield the release characteristics desired.
In FIG. 8, the results were obtained from TOAC glass discs (6 mm×2.5 mm) with MB9 dye evenly dispersed therein at 2 wt %. Release was controlled at 25° C. with gentle stirring and media changes at regular intervals. Note the linear release of MB9 dye over a 55 day period. The results presented in FIG. 8 indicate that a pure HDC vitreous delivery vehicle system gives zero-order release rates of guest substances. The results presented in FIGS. 9-14 show variation on release rates by changing the ratios of different HDCs in the delivery systems, changing the carbohydrate backbone length and by changing the nature of the derivative on the carbohydrate backbone. In each instance it is clear that the HDC delivery systems allow a wide range of release rates that can be tailored to the guest substance and the delivery thereof.

[6] = Resistance of glasses to devitrification on exposure to relative humidity
Method: Glasses were made by evaporating DCM on a hotplate set at 65° C. from a 25% solutions of TOAC (50% solutions often deposited crystals in the pipette tip). Drying was carried out for 2 hr to be certain of complete dryness. Uniform glasses were produced by using an Eppendorf-type pipette to deliver 100 μl to a slide recently placed on the hotplate and then removing about 50 μl by using the clear/expel volume of the pipette.
XPDO was therefore incorporated into a TOAC glass by dissolving both crystalline TOAC and XPDO in DCM and evaporating the solvent at 70° C. on a hotplate. XPDO was used in proportions of 10% and 20% of total solids in the final TOAC glass.
The resulting glasses were tested for their utility as controlled release matrices in two ways. First, they were assessed for their ability to resist devitrification on exposure to high RH at RT. Second, they were immersed in water or phosphate-buffered saline (PBS) to study their solubility and rate of erosion by surface recrystallization.

[7] = Phycoerythrin fluorescence (functional activity) after solvents, heat or processing
Method: Glasses were formed by drying 20% solutions of either trehalose, lactitol, palatinit or GPS, containing MWPB and 1 mg/ml of the fluorescent algal protein phycoerythrin under vacuum (80 mTorr) for 16 hrs. The glasses were ground in a domestic coffee mill to yield a coarse powder which was used to fill the spinning head of a Kando K1 Kandy Floss cotton candy machine (GB Patent No. 1533012). The motor was then switched on and the powdered sugar glass heated at element settings between 5 and 9. Residence time in the spinning head was 2-10 min and a continuous process was maintained by constantly topping up the head.
A 400 μg/ml phycoerythrin solution was freeze-dried in a Labconco freeze-drier with or without 20% trehalose. The dried protein powder was exposed to a number of organic solvents for 72 hrs.
A 400 μg/ml phycoerythrin solution was freeze-dried in the FTS drier with or without 20% trehalose. […]

[8] = freeze-dried powder in pyridine

loss of original weight ([1]; glass disc in 1 l of water replaced daily, after 7 days): 20%
rate of release of encapsulated Acid Blue dye ([1]; glass disc in water, FIG. 7): quite constant
Tg/° C. ([2]; single HDC glasses (Table 1)): 14 °C
Compound: CC(=O)OC[C@H]1O[C@H](OC(C)=O)[C@H](OC(C)=O)[C@@H](OC(C)=O)[C@@H]1OC(C)=O [α-GPAC, α-glucose pentaacetate]

solubility of glass in water [1]: poorly soluble in water
loss of original weight ([1]; glass disc 20 mm diameter, 2.5 mm thick, flowing water, 10 days): about 33%
Tg/° C. ([2]; single HDC glasses (Table 1)): 17 °C
Compound: CC(=O)OC[C@H]1O[C@@H](OC(C)=O)[C@H](OC(C)=O)[C@@H](OC(C)=O)[C@@H]1OC(C)=O [β-GPAC, β-glucose pentaacetate]

Compound: magnesium isostearate
delay of dye release ([3]; glucose glass film with 1 wt % MB9 coated with 100 μm metal carboxylate film, distilled water): 10 days

Tg/° C. ([2]; single HDC glasses (Table 1)): −10 °C
Compound: CCCCCCCCO[C@@H]1O[C@H](COC(C)=O)[C@@H](OC(C)=O)[C@H](OC(C)=O)[C@H]1OC(C)=O [OGTA, 1-0-Octyl-β-D-glucose tetraacetate]

Compound: horseradish peroxidase
resistance of enzyme activity to acetone [4]: more resistant to acetone

MB9 release profile ([5]; TOAC/RUDA glass spheres into PBS): biphasic release rate
initial fast release of MB9 dye ([5]; glass spheres into PBS, in 5 days): about 60%
Tg/° C. ([2]; single HDC glasses (Table 1)): 55 °C
Tg/° C. ([2]; single and composite HDC glasses, mole ratios of HDCs in glass (Table 2)): 55 °C
Compound: CC(=O)OCC1OC(OCC2OC(OC3(COC(C)=O)OC(COC(C)=O)C(OC(C)=O)C3OC(C)=O)C(OC(C)=O)C(OC(C)=O)C2OC(C)=O)C(OC(C)=O)C(OC(C)=O)C1OC(C)=O (stereo not shown) [RUDA, raffinose undecaacetate]

Compound: Aluminum hexanoate
devitrification of film during dye release ([3]; 100-200 μm film, 1 wt % MB9, distilled water, 5 hr): No devitrification

Compound: OC[C@H]1O[C@H](O[C@H]2O[C@H](CO)[C@@H](O)[C@H](O)[C@H]2O)[C@H](O)[C@@H](O)[C@@H]1O [Trehalose, α-D-glucopyranosyl-α-D-glucopyranoside]
recrystallization of glass on storage ([6]; trehalose glass from evaporating water from 50% trehalose solution): gradually recrystallized over a period of several weeks

Compound: phycoerythrin
fluorescence after exposure to organic solvent ([7]; dimethylsulfoxide, powder solubilized): remained fluorescent
functional activity after storage at 100° C. ([7]; dried in trehalose, one month): no detectable loss of functional activity
time by which fluorescence was lost [7, 8]: ≤ 72 h
time fluorescence remained [7, 8]: 24 to 48 h
fluorescence after exposure to organic solvent ([7]; freeze-dried with 20% trehalose, acetone, acetonitrile chloroform and methanol, 72 hrs): remained fluorescent
biological activity as assessed by fluorescence ([7]; in spun sugar glass microneedles): retention of biological activity
biological functionality by ability to fluoresce ([7]; trehalose glass powder co-melted into carboxylate glass at 95° C.): retained its biological functionality
fluorescence in carboxylate glass formed by evaporation ([7]; trehalose glass powder in 1:1 sodium octanoate/zinc ethylhexanoate, chloroform): remained fluorescent
fluorescence in perspex block ([7]; trehalose glass powder in perspex from chloroform): remained fluorescent

Compound: zinc palmitate [ZnC16]
wetting of coated powder in water ([3]; spray-dried trehalose/calcium lactate/MB9 particles coated with ZnC16): remained unwetted in water for at least three days

Tg/° C. ([2]; single HDC glasses (Table 1)): 3 °C
Compound: CCC(=O)OCC1OC(OC2OC(COC(=O)CC)C(OC(=O)CC)C(OC(=O)CC)C2OC(=O)CC)C(OC(=O)CC)C(OC(=O)CC)C1OC(=O)CC (stereo not shown) [TOPR, trehalose octapropanoate]
devitrification at RH from 75% to 95% ([6]; thin glass films and quenched disks, RT, overnight exposure): very susceptible to devitrification at high RH

Tg/° C. ([2]; single HDC glasses (Table 1)): 65 °C
Compound: CC(=O)OC[C@H]1O[C@@H](O[C@H]2[C@H](OC(C)=O)[C@@H](OC(C)=O)C(OC(C)=O)O[C@@H]2COC(C)=O)[C@H](OC(C)=O)[C@@H](OC(C)=O)[C@@H]1OC(C)=O (stereo partly shown) [COAC, cellobiose octaacetate]

Tg/° C. ([2]; single HDC glasses (Table 1)): 25 °C
Compound: CC(=O)OC[C@H]1O[C@@](COC(C)=O)(O[C@H]2O[C@H](COC(C)=O)[C@@H](OC(C)=O)[C@H](OC(C)=O)[C@H]2OC(C)=O)[C@@H](OC(C)=O)[C@@H]1OC(C)=O [SOAC, sucrose octaacetate]

Compound: alkaline phosphatase
resistance of enzyme activity to acetone [4]: more resistant to acetone

Compound: calcium neodecanoate
dye release relative to film dissolution ([3]; film with MB9 in distilled water, 24 hr, Ca2+ by atomic adsorption spectroscopy): followed the dissolution of the films

From patent US6586006B2, “Solid delivery systems for controlled release of molecules incorporated therein and methods of making same” (Elan Drug Delivery Limited, priority 1994, dated 2003)
